Measured values published in patent publication US12662491B2 (Redona Therapeutics, Inc., priority 2020, dated 2026).

Target: T1, Zcchc11 enzyme (Homo sapiens, UniProt Q5TAX3)
T1 construct: made in house; host or cells: HEK293 cells (Zcchc11); E. coli Rosetta II (LIN28A)
T1 sequence (Q5TAX3 212-1420): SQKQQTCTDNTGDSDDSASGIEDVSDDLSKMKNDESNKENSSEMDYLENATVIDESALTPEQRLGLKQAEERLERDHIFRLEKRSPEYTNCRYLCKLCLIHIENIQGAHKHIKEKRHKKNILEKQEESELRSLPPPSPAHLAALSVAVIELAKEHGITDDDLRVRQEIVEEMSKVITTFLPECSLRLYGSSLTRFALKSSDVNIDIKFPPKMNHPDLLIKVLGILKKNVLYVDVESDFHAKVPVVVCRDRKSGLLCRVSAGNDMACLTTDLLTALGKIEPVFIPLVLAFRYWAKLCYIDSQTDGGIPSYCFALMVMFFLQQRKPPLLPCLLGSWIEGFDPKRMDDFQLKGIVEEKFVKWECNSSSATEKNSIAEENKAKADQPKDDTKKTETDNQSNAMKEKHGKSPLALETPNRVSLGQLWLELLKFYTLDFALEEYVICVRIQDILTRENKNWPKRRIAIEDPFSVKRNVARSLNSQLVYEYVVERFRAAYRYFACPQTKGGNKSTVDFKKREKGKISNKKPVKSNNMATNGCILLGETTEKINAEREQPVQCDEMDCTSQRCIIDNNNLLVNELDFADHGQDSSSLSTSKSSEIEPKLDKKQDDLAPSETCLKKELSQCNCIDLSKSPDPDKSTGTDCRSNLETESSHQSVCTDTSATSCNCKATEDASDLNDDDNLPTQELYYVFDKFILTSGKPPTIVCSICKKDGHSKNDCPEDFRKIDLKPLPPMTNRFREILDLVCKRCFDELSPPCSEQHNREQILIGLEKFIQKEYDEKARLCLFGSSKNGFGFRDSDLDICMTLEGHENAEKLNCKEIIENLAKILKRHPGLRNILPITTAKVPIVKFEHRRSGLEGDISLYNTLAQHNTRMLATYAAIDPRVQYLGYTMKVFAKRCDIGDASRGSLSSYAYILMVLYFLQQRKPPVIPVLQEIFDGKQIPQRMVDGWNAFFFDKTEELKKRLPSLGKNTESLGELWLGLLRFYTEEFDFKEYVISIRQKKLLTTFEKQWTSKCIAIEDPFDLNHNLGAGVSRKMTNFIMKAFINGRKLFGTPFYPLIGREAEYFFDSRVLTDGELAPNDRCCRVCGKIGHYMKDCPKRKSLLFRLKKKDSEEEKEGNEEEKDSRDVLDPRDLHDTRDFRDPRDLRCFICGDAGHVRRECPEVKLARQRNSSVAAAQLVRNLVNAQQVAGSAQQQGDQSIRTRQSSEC
Experiment: TUTase assay (Zcchc11 assay, Lin28a-dependent polyuridylation of pre-let-7)
Format: biochemical
Conditions: Lin28a-dependent Zcchc11 (Z11) TUTase assay; read-out: Potency Lin28a-dep Z11 IC50
Summary of the method: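 LIN28A (10 nM) in pH 7.3 HEPES/KCl/MgCl2/DTT buffer was mixed with serially diluted compound, then 0.2 nM truncated human Zcchc11 and 2 nM labeled pre-let-7 were added for 30 min at room temperature. UTP (5 uM) and quench probe (4 nM) then started the reaction. Linear early rates gave IC50 values.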

IC50, ≤ 1000 nM:
Cn1cc(-n2cc(C(=O)O)c(=O)c3cc(Cl)c(N4CCC[C@@H]4COc4ncccc4Cl)cc32)cn1 [Example 436, (R)-6-chloro-7-(2-(((3-chloropyridin-2-yl)oxy)methyl)pyrrolidin-1-yl)-1-(1-methyl-1H-pyrazol-4-yl)-4-oxo-1,4-dihydroquinoline-3-carboxylic acid]
CN(C)CCn1cc(-n2cc(C(=O)O)c(=O)c3cc(Cl)c(N4CCC[C@@H]4COc4ncccc4Cl)cc32)cn1 [Example 437, (R)-6-chloro-7-(2-(((3-chloropyridin-2-yl)oxy)methyl)pyrrolidin-1-yl)-1-(1-(2-(dimethylamino)ethyl)-1H-pyrazol-4-yl)-4-oxo-1,4-dihydroquinoline-3-carboxylic acid]
O=C(O)c1cn(-c2ccc3[nH]ccc3c2F)c2cc(N3CCC[C@@H]3COc3ccccn3)c(F)cc2c1=O [Example 438, (R)-6-fluoro-1-(4-fluoro-1H-indol-5-yl)-4-oxo-7-(2-((pyridin-2-yloxy)methyl)pyrrolidin-1-yl)-1,4-dihydroquinoline-3-carboxylic acid]
O=C(O)c1cn(-c2ccc3[nH]ccc3c2)c2cc(N3CCC[C@@H]3COc3ccccn3)c(F)cc2c1=O [Example 439, (R)-6-fluoro-1-(1H-indol-5-yl)-4-oxo-7-(2-((pyridin-2-yloxy)methyl)pyrrolidin-1-yl)-1,4-dihydroquinoline-3-carboxylic acid]
O=C(O)c1cn(-c2ccc3[nH]cnc3c2)c2cc(N3CCC[C@@H]3COc3ccccn3)c(F)cc2c1=O [Example 440, (R)-1-(1H-benzo[d]imidazol-5-yl)-6-fluoro-4-oxo-7-(2-((pyridin-2-yloxy)methyl)pyrrolidin-1-yl)-1,4-dihydroquinoline-3-carboxylic acid]
O=C(O)c1cn(-c2ccc3[nH]c(=O)[nH]c3c2)c2cc(N3CCC[C@@H]3COc3ccccn3)c(F)cc2c1=O [Example 441, (R)-6-fluoro-4-oxo-1-(2-oxo-2,3-dihydro-1H-benzo[d]imidazol-5-yl)-7-(2-((pyridin-2-yloxy)methyl)pyrrolidin-1-yl)-1,4-dihydroquinoline-3-carboxylic acid]
Cc1cccnc1OC[C@H]1CCCN1c1cc2c(cc1F)c(=O)c(C(=O)O)cn2-c1ccc2[nH]ccc2c1 [Example 442, (R)-6-fluoro-1-(1H-indol-5-yl)-7-(2-(((3-methyl-pyridin-2-yl)oxy)methyl)pyrrolidin-1-yl)-4-oxo-1,4-dihydroquinoline-3-carboxylic acid]
Cc1cccnc1OC[C@H]1CCCN1c1cc2c(cc1F)c(=O)c(C(=O)O)cn2-c1ccc2[nH]c(=O)[nH]c2c1 [Example 443, (R)-6-fluoro-7-(2-(((3-methylpyridin-2-yl)oxy)methyl)pyrrolidin-1-yl)-4-oxo-1-(2-oxo-2,3-dihydro-1H-benzo[d]imidazol-5-yl)-1,4-dihydroquinoline-3-carboxylic acid]
Cc1cccnc1OC[C@H]1CCCN1c1cc2c(cc1Cl)c(=O)c(C(=O)O)cn2-c1ccc2[nH]cnc2c1 [Example 444, (R)-1-(1H-benzo[d]imidazol-5-yl)-6-chloro-7-(2-(((3-methylpyridin-2-yl)oxy)methyl)pyrrolidin-1-yl)-4-oxo-1,4-dihydroquinoline-3-carboxylic acid]
O=C(O)c1cn(-c2ccc3c(c2)CCOC3)c2cc(N3CCC[C@@H]3COc3ncccc3Cl)c(Cl)cc2c1=O [Example 445, (R)-6-chloro-7-(2-(((3-chloropyridin-2-yl)oxy)methyl)pyrrolidin-1-yl)-1-(isochroman-6-yl)-4-oxo-1,4-dihydroquinoline-3-224 carboxylic acid]
